Like-named read-outs stand apart in the source and are kept apart here.
Experiments:
[1] = system: serotonin uptake, human blood platelets; assay: Inhibition of serotonin uptake by human blood platelets; format: cell-based; conditions: Platelet, read-out: Inhibition of serotonin uptake I50
From the text: It is known that serotonin uptake by the blood platelets is a good model of the uptake of this amine by the neurons (cf. J. Tuomisto, J. Pharm., Pharmac., 26, 92 (1974). When applied to the study of medicaments, a method involving the use of blood platelets is of great interest because it allows the use of human cells so that its anticipation character is good.
The capacity of products to inhibit serotonin uptake or to induce serotonin release, was shown on human blood platelets, according to J. L. David and Coll. "Platelets Function and Thrombosis, a Review of Methods" p. 335 (Plenum Press, London, 1972).
1. Inhibition of Serotonin uptake
The results are expressed by a 50% inhibiting dose or I50 which represents the product dose, in micromoles per liter, which reduces the rate of serotonin uptake by 50%.

[2] = system: serotonin release, human blood platelets; assay: Serotonin release from human blood platelets; format: cell-based; conditions: Platelet, product concentration 5 × 10^-5 moles per liter, relative to controls, read-out: Percent of increased serotonin release
Protocol: "Platelets Function and Thrombosis, a Review of Methods" p.
The action of the products on serotonin release is tested at a concentration of 5×10^-5 moles per liter.

[3] = Acute oral toxicity in male CD1 mice; conditions: mouse, in vivo, 3 days of observation
Protocol: The acute toxicity of the products has been established in the male CD1 (Charles RIVER) mice following oral administration. The LD50 calculated following 3 days of observation by the cumulative method of J. J. Reed and Coll. (Am. J. Hyg. 27, 493-1938) is 600 mg/kg for compounds of Examples 1 and 2 and about 400 mg/kg for the compound of Example 4.

Row | SMILES | IC50 ([1]; Homo sapiens) [nM] | activation at 50 µM [2] [%] | LD50 at 72 h [3] [mg/kg] | IC50 ([1]; human blood platelets, dose reducing the rate of serotonin uptake by 50%) [nM]
1 | C1=C(CCc2c[nH]c3ccccc23)CCNC1 [Example 1, 3-[2-(1,2,5,6-tetrahydro-4-pyridyl)-ethyl]-indole] | 55 | 85 | 600 | –
2 | CC(Cc1c[nH]c2ccccc12)C1=CCNCC1 (stereo not drawn) [Example 2, 3-[2-(1,2,5,6-tetrahydro-4-pyridyl)-2-methyl-ethyl]-indole] | 40 | 68 | 600 | –
3 | CC(Cc1c[nH]c2ccccc12)C1CCNCC1 (stereo not drawn) [Example 4, 3-[2-(4-piperidyl)-2-methyl-ethyl]-indole] | 10 | 76 | ~400 | –
4 | CN(C)CCCN1c2ccccc2CCc2ccccc21 [Imipramine, imipramine, reference compound] | 400 | 13 | – | –
5 | c1ccc2c(CCC3CCNCC3)c[nH]c2c1 [Indalpine, 3-[2-(4-piperidyl)-ethyl]-indole, reference compound] | – | 22 | – | 35
6 | CC(N)Cc1ccc(Cl)cc1 (stereo not drawn) [p-chloro-amphetamine, p-chloroamphetamine, reference compound] | 12000 | 51 | – | –

Reference: US4478841A, “3-[2-(Tetra- and Hexa- hydro-4-pyridyl)-ethyl]-indoles and their use as medicaments” (Pharmuka Laboratoires, priority 1981, dated 1984)
